This passage reports IC50, Flu intensity and Activity results from ChEMBL document CHEMBL6120988, “Mitochondria-targeting artesunate-rhein conjugates: Linker-modulated cell-permeability, heme-affinity and anticancer activity” (Eur J Med Chem, 2025).

What is called IC50 is the concentration that gives 50% inhibition.

The test system of data set [1] is 4T1. Kind of data set: Cytotoxicty against mouse 4T1 cells assessed as cell viability by MTT assay. It is filed as functional, cell-based.
Data set [2] can be described thus: Drug localization in mitochondria of mouse 4T1 cells assessed as fluorescence intensity measured using pearson co-efficient incubated for 10 hrs by mito-tracker red fluorescent dye based confocal laser scanning microscopic analysis. It is filed as ADME. The note with it: 4t1, 10 h.
In data set [3] the test system is A549. Kind of data set: Cytotoxicity against human A549 cells assessed as cell viability by MTT assay. Type of data set: functional, cell-based. In general terms: Tetrazolium dyes change colour on reduction, which living cells bring about.
Data set [4] concerns HeLa. As to the kind of experiment: Cytotoxicity against human Hela cells assessed as cell viability by MTT assay. Type of data set: functional, cell-based.
Data set [5] relates to MCF7. Kind of data set: Cytotoxicity against human MCF7 cells assessed as cell viability by MTT assay. Type of data set: functional, cell-based.
Data set [6] has as its system U-87 MG. As to the kind of experiment: Cytotoxicity against human U87 cells assessed as cell viability by MTT assay. Type of data set: functional, cell-based, U-87MG ATCC.
Data set [7] deals with 4T1. Kind of data set: Induction of apoptosis in mouse 4T1 cells assessed as viable cells by Annexin V-FITC and PI staining based flow cytometry analysis (reference value: 96.2 %). Type of data set: functional. (A flow cytometer gives signals particle by particle.)
In data set [8] the test system is 4T1. Kind of data set: Induction of apoptosis in mouse 4T1 cells assessed as early apoptotic cells by Annexin V-FITC and PI staining based flow cytometry analysis(reference value: 3.60 %). It is filed as functional.
The test system of data set [9] is 4T1. As to the kind of experiment: Induction of apoptosis in mouse 4T1 cells assessed as late apoptotic cells by Annexin V-FITC and PI staining based flow cytometry analysis (reference value: 0.13 %). It is filed as functional.
Data set [10] concerns 4T1. As to the kind of experiment: Induction of apoptosis in mouse 4T1 cells assessed as necrotic cells by Annexin V-FITC and PI staining based flow cytometry analysis (reference value: 0.085 %). It is filed as functional.
The test system of data set [11] is Mitochondrial membrane. As to the kind of experiment: Induction of mitochondrial membrane potential loss in mouse 4T1 cells assessed as increase in green fluorescence by JC-1 staining based flow cytometric analysis (reference value: 7.4 %). Type of data set: cell membranes.
In data set [12] the test system is 4T1. Kind of data set: Induction of ROS production in mouse 4T1 cells assessed as increase in intracellular ROS level by […] staining based flow cytometry (reference value: 7.8%). Type of data set: functional.
In data set [13] the test system is 4T1. Kind of data set: Cytotoxicty against mouse 4T1 cells assessed as cell death by measuring red staining by calcein/PI staining based live/dead staining analysis. It is filed as functional.
Data set [14] deals with 4T1. Kind of data set: Induction of immunogenic cell death in mouse 4T1 cells assessed as increase in CRT expression by flow cytometry analysis (reference value: 2.55%). Type of data set: functional.
The subject of data set [15] is 4T1. Kind of data set: Induction of immunogenic cell death in mouse 4T1 cells assessed as increase in CRT exposure on cell surface by measuring increase in red fluorescence by CLSM analysis (reference value: 2.55%). Type of data set: functional.

Activity calls are given as the source filed them. No cut-off for these calls is given here.

For the molecule `C[C@H]1[C@H](OC(=O)CCC(=O)OCCCCCCOC(=O)c2cc(O)c3c(c2)C(=O)c2cccc(O)c2C3=O)O[C@@H]2O[C@@]3(C)CC[C@H]4[C@H](C)CC[C@@H]1[C@@]24OO3`, the concentration for half-maximal inhibition (IC50) in data set [1] is 1800 nM; in data set [3], 3290 nM; in data set [4] it was 3110 nM; in [5], 2190 nM; in [6], 2690 nM. Moreover, the Flu intensity in data set [2] was 0.95. For the same molecule, the Activity was determined as 65.8% in data set [7]; 14.2% in data set [8]; 17.7% in data set [9]; 2.37% in data set [10]; 38.1% in data set [11]; 32.7% in data set [12]. Further, in [13], the result was Active.

As to `O=C(O)c1cc(O)c2c(c1)C(=O)c1cccc(O)c1C2=O` [RHEIN], the Activity in data set [14] was determined as 3.82%; in [7], 94%; in data set [8] it was 4.28%; in [9] it was 0.86%; in [10] it was 0.83%; in [11] it was 11.4%. Moreover, the Activity in [12] is on record as 11.8%; in data set [15], 3.82%. Besides, the IC50 in data set [1] was 51500 nM; in data set [3], 53400 nM; in data set [4] it was 50800 nM; in data set [5], 56500 nM; in data set [6], 47800 nM. The Flu intensity in data set [2] is on record as 0.93.

`C[C@H]1[C@H](OC(=O)CCC(=O)OCCOC(=O)c2cc(O)c3c(c2)C(=O)c2cccc(O)c2C3=O)O[C@@H]2O[C@@]3(C)CC[C@H]4[C@H](C)CC[C@@H]1[C@@]24OO3`: the IC50 in [1] is 1400 nM; in data set [3], 3010 nM; in [4], 2770 nM; in data set [5], 2230 nM; in [6], 2440 nM. In addition, the Flu intensity in data set [2] was determined as 0.91. The Activity was determined as 52.6% in data set [7]; 13.9% in data set [8]; 26.7% in [9]; 6.81% in data set [10]; 39.2% in data set [11]; 39.6% in [12]. Moreover, the outcome in data set [13] was Active.

Consider `CC(=O)O[C@H]1C(=O)[C@@]2(C)[C@H]([C@H](OC(=O)c3ccccc3)[C@]3(O)C[C@H](OC(=O)[C@H](O)[C@@H](NC(=O)c4ccccc4)c4ccccc4)C(C)=C1C3(C)C)[C@]1(OC(C)=O)CO[C@@H]1C[C@@H]2O` [PACLITAXEL], for which, in [1], the IC50 worked out at 3150 nM.

Consider `C[C@H]1[C@H](OC(=O)CCC(=O)OCCCCCOC(=O)c2cc(O)c3c(c2)C(=O)c2cccc(O)c2C3=O)O[C@@H]2O[C@@]3(C)CC[C@H]4[C@H](C)CC[C@@H]1[C@@]24OO3`, for which the IC50 in data set [1] turned out to be 1680 nM; in [3], 3190 nM; in [4] it was 2880 nM; in data set [5] it was 2270 nM; in data set [6], 2910 nM. In data set [2], the Flu intensity is on record as 0.94. For the same molecule, the Activity came out at 69.5% in data set [7]; 13% in [8]; 15.2% in [9]; 2.34% in data set [10]; 36.5% in data set [11]; 30% in data set [12]. Further, the outcome in [13] was Active.

`C[C@H]1[C@H](OC(=O)CCC(=O)OCCCOC(=O)c2cc(O)c3c(c2)C(=O)c2cccc(O)c2C3=O)O[C@@H]2O[C@@]3(C)CC[C@H]4[C@H](C)CC[C@@H]1[C@@]24OO3`: the IC50 in data set [1] amounted to 1410 nM; in data set [3], 2930 nM; in [4] it was 2900 nM; in data set [5] it was 2430 nM; in data set [6] it was 2560 nM. Moreover, the Flu intensity in data set [2] amounted to 0.96. Further, the Activity in [7] came to 60.1%; in [8] it was 14.9%; in data set [9], 21.6%; in data set [10], 3.35%; in data set [11], 37.3%; in [12], 31%. Moreover, in data set [13], the outcome was Active.

For the molecule `C[C@H]1[C@H](OC(=O)CCC(=O)O)O[C@@H]2O[C@@]3(C)CC[C@H]4[C@H](C)CC[C@@H]1[C@@]24OO3` [ARTESUNATE], the Activity in data set [14] is 9.59%; in [7], 90.6%; in data set [8], 6.46%; in data set [9], 2.24%; in data set [10], 0.71%; in data set [11] it was 14.8%. In addition, the Activity is 14.3% in data set [12] and 9.59% in data set [15]. Moreover, the IC50 in data set [1] was 12000 nM; in [3] it was 14700 nM; in data set [4], 15400 nM; in data set [5] it was 12700 nM; in data set [6], 13500 nM.
